Values after ≈ are worked out from the molar mass of the structure shown. Read-outs that look alike come from different tables or passages of the source.
Test system: non-replicating cultures of M. tuberculosis H37Rv transformed with lux ABCDE
Experiment: microbe, parasite or virus in culture
Format: cell-based, Mycobacterium tuberculosis
Conditions: for MIC / MIC90: ≥90% reduction in luminescence, read-out: MIC90 LORA; for MIC90 LORA/MABA: ratio of LORA MIC90 to MABA MIC90
[1] = Mycobacterium tuberculosis, H37RV

SMILES | MIC90 LORA Rel to RMP | MIC [1] [µM] | MIC90 LORA/MABA | MIC90 [1] [µM] | MIC90 [µM]
CO[C@H]1/C=C/O[C@@]2(C)Oc3c(C)c(O)c4c(=O)c(c5oc6cc(N7CCN(CC(C)C)CC7)cc(OCCCCN7CCOCC7)c6nc-5c4c3C2=O)NC(=O)/C(C)=C\C=C\[C@H](C)[C@H](O)[C@@H](C)[C@@H](O)[C@@H](C)[C@H](OC(C)=O)[C@@H]1C [Compound 6a, (7S,9E,11S,12R,13S,14R,15R,16R,17S,18S,19E,21Z)-2,15,17-Trihydroxy-11-methoxy-3,7,12,14,16,18,22-heptamethyl-30-[4-(2-methylpropyl)piperazin-1-yl]-32-[4-(morpholin-4-yl)butoxy]-6,23,37-trioxo-8,27,38-trioxa-24,34-diazahexacyclo[23.11.1.1^4,7.0^5,36.0^26,35.0^28,33]octatriaconta-1(36)2,4,9,19,21,25,28(33)29,31,34-undecaen-13-yl acetate] | 0.07 | 0.186 | 2.0 |  | 
CO[C@H]1/C=C/O[C@@]2(C)Oc3c(C)c(O)c4c(=O)c(c5oc6cc(N7CCN(CCCO[C@@H]8COc9nc([N+](=O)[O-])cn9C8)CC7)cc(C)c6nc-5c4c3C2=O)NC(=O)/C(C)=C\C=C\[C@H](C)[C@H](O)[C@@H](C)[C@@H](O)[C@@H](C)[C@H](OC(C)=O)[C@@H]1C [Compound 29d, (7S,9E,11S,12R,13S,14R,15R,16R,17S,18S,19E,21Z)-2,15,17-Trihydroxy-11-methoxy-3,7,12,14,16,18,22,32-octamethyl-30-[4-(3-{[(6S)-2-nitro-5H,6H,7H-imidazo[2,1-b][1,3]oxazin-6-yl]oxy}propyl)piperazin-1-yl]-6,23,37-trioxo-8,27,38-trioxa-24,34-diazahexacyclo[23.11.1.1^4,7.0^5,36.0^26,35.0^28,33]octatriaconta-1(36)2,4,9,19,21,25,28,30,32,34-undecaen-13-yl acetate] | 0.20 |  | 1.4 | 0.053 | 
CO[C@H]1/C=C/O[C@@]2(C)Oc3c(C)c(O)c4c(=O)c(c5oc6cc(C)cc(N7CCN(C(=O)c8ccc9occc9c8)CC7)c6nc-5c4c3C2=O)NC(=O)/C(C)=C\C=C\[C@H](C)[C@H](O)[C@@H](C)[C@@H](O)[C@@H](C)[C@H](OC(C)=O)[C@@H]1C [Compound 30h, (7S,9E,11S,12R,13S,14R,15R,16R,17S,18S,19E,21Z)-32-[4-(1-Benzofuran-5-carbonyl)piperazin-1-yl]-2,15,17-trihydroxy-11-methoxy-3,7,12,14,16,18,22,30-octamethyl-6,23,37-trioxo-8,27,38-trioxa-24,34-diazahexacyclo[23.11.1.1^4,7.0^5,36.0^26,35.0^28,33]octatriaconta-1(36)2,4,9,19,21,25,28,30,32,34-undecaen-13-yl acetate] | 0.20 |  | 2.2 | 0.042 | 
CO[C@H]1/C=C/O[C@@]2(C)Oc3c(C)c(O)c4c(=O)c(c5oc6cc(N7CCN(CC(C)C)CC7)cc(OCCCCN7CCN(CCn8ccnc8)CC7)c6nc-5c4c3C2=O)NC(=O)/C(C)=C\C=C\[C@H](C)[C@H](O)[C@@H](C)[C@@H](O)[C@@H](C)[C@H](OC(C)=O)[C@@H]1C [Compound 6b, (7S,9E,11S,12R,13S,14R,15R,16R,17S,18S,19E,21Z)-2,15,17-trihydroxy-32-(4-{4-[2-(1H-imidazol-1-yl)ethyl]piperazin-1-yl}butoxy)-11-methoxy-3,7,12,14,16,18,22-heptamethyl-30-[4-(2-methylpropyl)piperazin-1-yl]-6,23,37-trioxo-8,27,38-trioxa-24,34-diazahexacyclo[23.11.1.1^4,7.0^5,36.0^26,35.0^28,33]octatriaconta-1(36)2,4,9,19,21,25,28(33)29,31,34-undecaen-13-yl acetate] | 0.05 | 0.05 | 2.4 |  | 
CO[C@H]1/C=C/O[C@@]2(C)Oc3c(C)c(O)c4c(=O)c(c5oc6cccc(OCCCCN7CCN(C(=O)OC(C)(C)C)CC7)c6nc-5c4c3C2=O)NC(=O)/C(C)=C\C=C\[C@H](C)[C@H](O)[C@@H](C)[C@@H](O)[C@@H](C)[C@H](OC(C)=O)[C@@H]1C [Compound 5c, Tert-Butyl 4-(4-{[(7S,9E,11S,12R,13S,14R,15R,16R,17S,18S,19E,21Z)-13-(acetyloxy)-2,15,17-trihydroxy-11-methoxy-3,7,12,14,16,18,22-heptamethyl-6,23,37-trioxo-8,27,38-trioxa-24,34-diazahexacyclo[23.11.1.1^4,7.0^5,36.0^26,35.0^28,33]octatriaconta-1(36)2,4,9,19,21,25,28(33)29,31,34-undecaen-32-yl]oxy}butyl)piperazine-1-carboxylate] | 0.22 | 0.058 (≈ 0.0604 µg/mL) | 2.4 |  | 
CO[C@H]1/C=C/O[C@@]2(C)Oc3c(C)c(O)c4c(=O)c(c5oc6cc(N7CCN(C)CC7)cc(OCCCCN7CCN(C(=O)Cn8ccnc8)CC7)c6nc-5c4c3C2=O)NC(=O)/C(C)=C\C=C\[C@H](C)[C@H](O)[C@@H](C)[C@@H](O)[C@@H](C)[C@H](OC(C)=O)[C@@H]1C [Compound 6c, (7S,9E,11S,12R,13S,14R,15R,16R,17S,18S,19E,21Z)-2,15,17-Trihydroxy-32-(4-{4-[2-(1H-imidazol-1-yl)acetyl]piperazin-1-yl}butoxy)-11-methoxy-3,7,12,14,16,18,22-heptamethyl-30-(4-methylpiperazin-1-yl)-6,23,37-trioxo-8,27,38-trioxa-24,34-diazahexacyclo[23.11.1.1^4,7.0^5,36.0^26,35.0^28,33]octatriaconta-1(36)2,4,9,19,21,25,28(33)29,31,34-undecaen-13-yl acetate] | 0.14 | 0.021 | 0.5 |  | 
CO[C@H]1/C=C/O[C@@]2(C)Oc3c(C)c(O)c4c(=O)c(c5oc6cc(N7CCN(C(=O)c8cccc(-n9ccnc9)c8)CC7)cc(C)c6nc-5c4c3C2=O)NC(=O)/C(C)=C\C=C\[C@H](C)[C@H](O)[C@@H](C)[C@@H](O)[C@@H](C)[C@H](OC(C)=O)[C@@H]1C [Compound 29a, (7S,9E,11S,12R,13S,14R,15R,16R,17S,18S,19E,21Z)-2,15,17-Trihydroxy-30-{4-[3-(1H-imidazol-1-yl)benzoyl]piperazin-1-yl}-11-methoxy-3,7,12,14,16,18,22,32-octamethyl-6,23,37-trioxo-8,27,38-trioxa-24,34-diazahexacyclo[23.11.1.1^4,7.0^5,36.0^26,35.0^28,33]octatriaconta-1(36)2,4,9,19,21,25,28,30,32,34-undecaen-13-yl acetate] | 0.61 |  | 3.5 | 0.126 | 
CO[C@H]1/C=C/O[C@@]2(C)Oc3c(C)c(O)c4c(=O)c(c5oc6cc(C=O)cc(N7CCN(C)CC7)c6nc-5c4c3C2=O)NC(=O)/C(C)=C\C=C\[C@H](C)[C@H](O)[C@@H](C)[C@@H](O)[C@@H](C)[C@H](OC(C)=O)[C@@H]1C [Compound 30b, (7S,9E,11S,12R,13S,14R,15R,16R,17S,18S,19E,21Z)-30-Formyl-2,15,17-trihydroxy-11-methoxy-3,7,12,14,16,18,22-heptamethyl-32-(4-methylpiperazin-1-yl)-6,23,37-trioxo-8,27,38-trioxa-24,34-diazahexacyclo[23.11.1.1^4,7.0^5,36.0^26,35.0^28,33]octatriaconta-1(36)2,4,9,19,21,25,28,30,32,34-undecaen-13-yl acetate] | 0.44 |  | 3.1 |  | 0.114
CO[C@H]1/C=C/O[C@@]2(C)Oc3c(C)c(O)c4c(=O)c(c5oc6cccc(OCc7ccc(CN8CCN(C(=O)Cn9ccnc9)CC8)cc7)c6nc-5c4c3C2=O)NC(=O)/C(C)=C\C=C\[C@H](C)[C@H](O)[C@@H](C)[C@@H](O)[C@@H](C)[C@H](OC(C)=O)[C@@H]1C [Compound 16b, (7S,9E,11S,12R,13S,14R,15R,16R,17S,18S,19E,21Z)-2,15,17-Trihydroxy-32-{[4-({4-[2-(1H-imidazol-1-yl)acetyl]piperazin-1-yl}methyl)phenyl]methoxy}-11-methoxy-3,7,12,14,16,18,22-heptamethyl-6,23,37-trioxo-8,27,38-trioxa-24,34-diazahexacyclo[23.11.1.1^4,7.0^5,36.0^26,35.0^28,33]octatriaconta-1(36)2,4,9,19,21,25,28,30,32,34-undecaen-13-yl acetate] | 0.93 | 0.057 | 2.0 |  | 
CO[C@H]1/C=C/O[C@@]2(C)Oc3c(C)c(O)c4c(=O)c(c5oc6cc(C)cc(N7CCN(CC(C)C)CC7)c6nc-5c4c3C2=O)NC(=O)/C(C)=C\C=C\[C@H](C)[C@H](O)[C@@H](C)[C@@H](O)[C@@H](C)[C@H](OC(C)=O)[C@@H]1C [Compound 30c, (7S,9E,11S,12R,13S,14R,15R,16R,17S,18S,19E,21Z)-2,15,17-Trihydroxy-11-methoxy-3,7,12,14,16,18,22,30-octamethyl-32-[4-(2-methylpropyl)piperazin-1-yl]-6,23,37-trioxo-8,27,38-trioxa-24,34-diazahexacyclo[23.11.1.1^4,7.0^5,36.0^26,35.0^28,33]octatriaconta-1(36)2,4,9,19,21,25,28,30,32,34-undecaen-13-yl acetate] | <0.06 |  |  | < 0.016 | 
